From US12708630B2, “Combined therapy of 4′-thio-5-aza-2′-deoxycytidine and Venetoclax” (PINOTBIO, INC., priority 2021, dated 2026)
Entries after “also recorded” stand apart in the source; their conditions may differ. Read-outs that look alike come from different tables or passages of the source.

Legend:
[1] = system: DNMT1 knock-out MV4-11 cells; test: Target engagement: cytotoxicity in DNMT1 knock-out MV4-11 cell line; assay type: cell-based; settings: DNMT1 knock-out (siRNA) MV4-11, concentration-dependent treatment
Excerpt: This confirms that Aza-T-dCyd has potent pharmacological effects through DNMT1 (FIG. 18).

[2] = system: systemic MV4-11 engraftment model; settings: for survival: oral
Procedure: After establishing a systemic MV4-11 engraftment model that more accurately depicts the disease in humans, Aza-T-dCyd was administered orally at doses ranging from 0.4 to 1.5 mg/kg.
After establishment of the systemic MV4-11 engraftment model, Aza-T-dCyd was administered orally at doses of 1.5, 2.0, and 2.5 mg/kg (using the standard dose/dosing schedule used in preclinical trials for decitabine/azacytidine).
After establishing a systemic MV4-11 engraftment model, blood was collected at pre-treatment (Day 21) and mid-treatment (Day 36, 56, 77) in the Aza-T-dCyd and Decitabine/Azacytidine groups and analyzed for complete blood count (CBC) values.
To determine whether the anti-cancer efficacy in the systemic MV4-11 engraftment model was directly related to the ability to suppress the number of cancer cells, we performed experiments to measure body luminescence after systemic engraftment using the luciferase-transfected Mv4-11 cell line.

[3] = Preliminary toxicity experiments (Comet assay, bone marrow); assay type: in vivo; settings: mice
Procedure: As a preliminary toxicity assessment of the Aza-T-dCyd compound, preliminary toxicity experiments were conducted to determine the presence of toxicity symptoms (tissue changes) and DNA damage in bone marrow in mice after 2 weeks of systemic administration, and to assess the cellular composition in bone marrow of mice after 4 weeks of systemic administration.

AML cell lines = test: Cell viability inhibition in AML cell lines; assay type: cell-based; settings: various AML cell lines, FIG. 19
Procedure: The growth-inhibitory activity of Aza-T-dCyd, a DNMT1 inhibitor, was measured in leukemia cell lines to determine its inhibitory effect on cell proliferation.

[4] = Pharmacokinetic evaluation in Mice (Table 4); settings: mouse, in vivo; for half-life: read-out: T½ (converted)
Procedure: Aza-T-dCyd was administered orally and intravenously at various concentrations to Mice, Rats and Dogs to determine the PK profile.

cytidine deaminase = test: Degradation by cytidine deaminase
Excerpt: Decitabine/Azacytidine is susceptible to metabolism by cytidine deaminases in the body, resulting in an unstable PK profile that limits its efficacy.

MV4-11 AML cells = test: MV4-11 AML xenograft implanted subcutaneously, combination with venetoclax; assay type: in vivo, mice; set-up: anti-cancer effect (tumor volume): dose or concentration left out as unconfirmed
Procedure: After establishing a xenograft systemic AML model in which MV4-11 AML cells were implanted subcutaneously in mice, Aza-T-dCyd alone at 2.0 mpk for 1 cycle (5 days on, 2 days off, 5 days on, 9 days off) was administered (PO) or Aza-T-dCyd 0.5, 1.0 or 2.0 mpk plus venetoclax 50 mpk or 100 mpk administered orally (PO) for 1 cycle (venetoclax on for 5 days, off for 2 days, repeated for 3 weeks). Anti-cancer efficacy was determined in disease models in which azacitidine 5.0 mpk was administered intraperitoneally (IP) alone or in combination with optimal dose of azacitidine (2.5 mpk) and venetoclax 50 mpk or 100 mpk as a control.

DNMT1 [5] = target: T1, DNMT1 (Homo sapiens, UniProt P26358); test: DNMT1 protein Western blotting in cancer cell lines; assay type: cell-based; set-up: endogenous in cells; host or cells: MV4-11, KG-1a, CCRF-CEM, NCI-H23, HCT-116, IGROV-1 (also HL-60, THP-1); settings: for DNMT1 protein (Western blotting): AML cell lines MV4-11 and KG-1a
T1 sequence (P26358 whole entry): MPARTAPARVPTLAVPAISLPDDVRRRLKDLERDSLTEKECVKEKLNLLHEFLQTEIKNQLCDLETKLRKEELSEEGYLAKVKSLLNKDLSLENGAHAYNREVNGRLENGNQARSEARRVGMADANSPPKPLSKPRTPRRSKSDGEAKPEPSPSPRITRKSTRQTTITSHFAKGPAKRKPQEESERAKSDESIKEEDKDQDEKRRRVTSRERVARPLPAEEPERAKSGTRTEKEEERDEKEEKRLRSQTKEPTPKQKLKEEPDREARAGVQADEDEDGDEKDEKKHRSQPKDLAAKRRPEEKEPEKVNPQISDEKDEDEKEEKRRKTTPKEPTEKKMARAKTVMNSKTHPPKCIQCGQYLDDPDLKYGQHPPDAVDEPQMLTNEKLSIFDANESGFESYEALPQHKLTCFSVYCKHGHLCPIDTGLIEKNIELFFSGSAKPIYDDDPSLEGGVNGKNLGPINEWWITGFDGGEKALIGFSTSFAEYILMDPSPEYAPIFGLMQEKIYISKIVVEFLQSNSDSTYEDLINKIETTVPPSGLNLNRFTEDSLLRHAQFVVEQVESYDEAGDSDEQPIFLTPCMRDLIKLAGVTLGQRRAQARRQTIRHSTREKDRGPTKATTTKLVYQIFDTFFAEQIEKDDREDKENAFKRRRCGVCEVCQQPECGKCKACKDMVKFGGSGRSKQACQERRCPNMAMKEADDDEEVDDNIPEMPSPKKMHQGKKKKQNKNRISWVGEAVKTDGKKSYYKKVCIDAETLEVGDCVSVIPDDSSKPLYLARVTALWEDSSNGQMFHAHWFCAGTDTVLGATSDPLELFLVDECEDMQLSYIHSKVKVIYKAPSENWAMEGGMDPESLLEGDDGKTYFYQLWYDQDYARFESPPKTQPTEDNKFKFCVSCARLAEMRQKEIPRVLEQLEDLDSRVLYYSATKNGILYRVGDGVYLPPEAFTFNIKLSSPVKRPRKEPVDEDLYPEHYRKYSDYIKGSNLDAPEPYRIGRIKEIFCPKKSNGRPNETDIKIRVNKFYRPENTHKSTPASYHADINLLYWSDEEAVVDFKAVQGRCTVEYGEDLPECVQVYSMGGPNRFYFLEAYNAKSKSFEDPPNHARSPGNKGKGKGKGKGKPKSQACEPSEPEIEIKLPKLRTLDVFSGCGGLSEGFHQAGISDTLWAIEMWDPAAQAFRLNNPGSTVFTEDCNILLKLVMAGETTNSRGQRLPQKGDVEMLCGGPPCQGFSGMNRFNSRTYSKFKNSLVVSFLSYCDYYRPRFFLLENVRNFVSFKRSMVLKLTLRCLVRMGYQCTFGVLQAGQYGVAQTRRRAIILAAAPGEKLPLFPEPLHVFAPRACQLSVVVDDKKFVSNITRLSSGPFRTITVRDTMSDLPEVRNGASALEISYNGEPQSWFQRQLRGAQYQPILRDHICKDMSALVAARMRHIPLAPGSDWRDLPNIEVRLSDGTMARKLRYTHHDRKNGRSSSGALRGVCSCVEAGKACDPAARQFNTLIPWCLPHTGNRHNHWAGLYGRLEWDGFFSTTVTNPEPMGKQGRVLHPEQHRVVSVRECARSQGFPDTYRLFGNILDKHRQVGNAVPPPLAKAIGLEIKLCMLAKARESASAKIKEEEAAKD

DNMT1 [6] = target: T1, DNMT1; test: Western blotting of Molm13 xenograft cancer tissues, DNMT1; assay type: in vivo; set-up: endogenous in cells; settings: after administration
[7] = system: p15 tumor suppressor gene; test: p15 tumor suppressor gene re-expression (RT-PCR) in MV4-11 cells; assay type: cell-based; settings: for p15 mRNA re-expression: MV4-11 cell line
Procedure: Therefore, to determine the re-expression of tumor suppressor genes through epigenetic regulation mechanisms induced by DNMT1 inhibition upon Aza-T-dCyd (NTX-301) treatment, MV4-11 cells, an AML cell line, were treated with Aza-T-dCyd at different concentrations. […] Table 1 below compares the degree of p15 mRNA re-expression after DNMT1 inhibitor (Aza-T-dCyd/Decitabine) treatment in the MV4-11 cell line, an AML cell (fold increase from 0 nM is shown).

For `Nc1ncn([C@H]2CC(O)[C@@H](CO)S2)c(=O)n1` (some centres unmarked) [Aza-T-dCyd, 4′-thio-5-aza-2′-deoxycytidine], the “cytotoxicity in DNMT1 knock-out cell line” value [1] was “decrease in cytotoxicity”, the “anti-AML activity and survival” value ([2]; Aza-T-dCyd oral 1.5, 2.0 and 2.5 mg/kg, decitabine/azacytidine at standard preclinical dose/schedule) was “very good anti-AML activity and improved survival” and the body luminescence ([2]; luciferase-transfected Mv4-11 cell line, systemic engraftment) was “inhibited body luminescence more strongly than the actual Azacytidine treatment”. The “complete blood count (WBC, RBC, Neutrophil, Platelet)” value ([2]; mouse, in vivo) was “no changes”, the survival ([2]; highest dose (range 0.4 to 1.5 mg/kg)) was “more than half of the mice survived to the end of the experiment” and the survival ([2]; lowest dose of 0.4 mg/kg) was “statistically significant survival improvement”. The “cellular composition of the bone marrow” value ([3]; 4 weeks of continuous administration) was “no changes in the various cells that make up the bone marrow”, the “organ damage at necropsy” value ([3]; after two weeks) was “no organ damage” and the “Comet assay for DNA damage in bone marrow” value ([3]; after two weeks of treatment, versus untreated control) was “no changes in various indicators of DNA damage”. The weight changes ([3]; two-week systemic administration) was “no significant weight changes”, the cell viability inhibition (AML cell lines) was “excellent cell viability inhibition” and the AUC(0-inf) ([4]; Table 4, IV 1 mg/kg) was 406 ng·h/mL. It also gave an AUC(0-t) ([4]; Table 4, IV 1 mg/kg) of 370 ng·h/mL, a Cmax ([4]; Table 4, IV 1 mg/kg) of 527 ng/mL and a half-life ([4]; Table 4, IV 1 mg/kg) of 36.7 min. The AUC(0-inf) ([4]; Table 4, PO 0.5 mg/kg) was 131 ng·h/mL, the AUC(0-t) ([4]; Table 4, PO 0.5 mg/kg) was 118 ng·h/mL and the Cmax ([4]; Table 4, PO 0.5 mg/kg) was 211 ng/mL. It also gave a Tmax ([4]; Table 4, PO 0.5 mg/kg) of 30 min, a half-life ([4]; Table 4, PO 0.5 mg/kg) of 18.2 min and an AUC(0-inf) ([4]; Table 4, PO 1 mg/kg) of 235 ng·h/mL. The AUC(0-t) ([4]; Table 4, PO 1 mg/kg) was 136 ng·h/mL, the Cmax ([4]; Table 4, PO 1 mg/kg) was 138 ng/mL and the Tmax ([4]; Table 4, PO 1 mg/kg) was 15 min. For the same molecule, the half-life ([4]; Table 4, PO 1 mg/kg) was 103 min, the AUC(0-inf) ([4]; Table 4, PO 3 mg/kg) was 443 ng·h/mL and the AUC(0-t) ([4]; Table 4, PO 3 mg/kg) was 303 ng·h/mL. The Cmax ([4]; Table 4, PO 3 mg/kg) was 256 ng/mL, the Tmax ([4]; Table 4, PO 3 mg/kg) was 15 min and the half-life ([4]; Table 4, PO 3 mg/kg) was 66.6 min. The AUC(0-inf) ([4]; Table 4, PO 10 mg/kg) was 1460 ng·h/mL, the AUC(0-t) ([4]; Table 4, PO 10 mg/kg) was 1340 ng·h/mL and the Cmax ([4]; Table 4, PO 10 mg/kg) was 863 ng/mL. For the same molecule, the Tmax ([4]; Table 4, PO 10 mg/kg) was 20 min, the half-life ([4]; Table 4, PO 10 mg/kg) was 69 min and the “rate of degradation by cytidine deaminase” value (cytidine deaminase) was “slower rate of degradation by cytidine deaminase”. For the same molecule, the “anti-cancer effect (tumor volume)” value (MV4-11 AML cells; Aza-T-dCyd 0.5 mpk with venetoclax, FIGS. 30 and 31) was “complete tumor regression”, the “anti-cancer efficacy of monotherapy versus Azacytidine/Venetoclax” value (MV4-11 AML cells; Aza-T-dCyd 2.0 mpk alone, FIGS. 28 to 33) was “as effective as the Azacytidine/Venetoclax group; also recorded: anti-cancer efficacy equivalent to or superior to that of Azacytidine/Venetoclax combination” and the “anti-cancer effect (tumor volume), single agent” value (MV4-11 AML cells; administered alone (Aza-T-dCyd 2 mpk), FIGS. 30 and 31, listed as NTX-301) was “sufficiently working; also recorded: sufficiently anti-tumorigenic”. For the same molecule, the “DNMT1 protein (Western blotting)” value (DNMT1 [5]; 20 nM) was “completely reduced DNMT1”, the “DNMT1 protein (Western blotting)” value (DNMT1 [5]) was “reduced DNMT1 protein in a concentration-dependent manner” and the DNMT1 inhibition (DNMT1 [5]; CCRF-CEM (ALL cell line) cells, FIG. 12) was “inhibits DNMT1”. For the same molecule, the DNMT1 inhibition (DNMT1 [5]; CCRF-CEM (ALL) and solid cancer cell line) was “can inhibit DNMT1 in a concentration-dependent manner”, the DNMT1 inhibition (DNMT1 [5]; KG-1a (AML cell line) cells, FIG. 11) was “inhibits DNMT1” and the DNMT1 inhibition (DNMT1 [5]; MV4-11 (AML cell line) cells, different concentrations, FIG. 10) was “inhibits DNMT1”. The “DNMT1 intracellular protein expression” value (DNMT1 [5]; MV4-11, HL-60 and KG-1a cells, 72 hours) was “expression of DNMT1 was inhibited”, the DNMT1 inhibition (DNMT1 [5]; NCI-H23, HCT-116 and IGROV-1 cell lines, FIG. 13) was “inhibits DNMT1” and the DNMT1 inhibition (DNMT1 [5]; THP-1 cells, different concentrations) was “induced DNMT1 inhibition in a dose-dependent manner”. The “DNMT1 in cancer tissues (Western blotting)” value (DNMT1 [6]) was “strongly inhibited DNMT1 and DNMT3B in a concentration-dependent manner”, the “p15 mRNA re-expression” value ([7]; 6 nM) was 1.4 ± 0.19 fold increase from 0 nM and the “p15 mRNA re-expression” value ([7]; 20 nM) was 1.7 ± 0.38 fold increase from 0 nM. The “p15 mRNA re-expression” value ([7]; 60 nM) was 2.6 ± 0.89 fold increase from 0 nM, the “p15 mRNA re-expression” value ([7]; 200 nM) was 6.1 ± 0.86 fold increase from 0 nM and the “p15 upregulation compared with decitabine” value ([7]; MV4-11 cells) was “induced p15 upregulation better than decitabine”. For the same molecule, the “expression of p15 tumor suppressor gene (quantitative RT-PCR)” value ([7]; MV4-11 cells, 60 nM and 200 nM) was “significantly increased” and the “p15 mRNA re-expression (RT-PCR)” value ([7]; MV4-11 cells, different concentrations, FIG. 14) was “strong re-expression of p15 mRNA”.
